Format in all cases: cell-based
Assay [1] addresses proteins of HEK293T cells transiently overexpressing caspase-6 (Homo sapiens, UniProt P08238). To be noted: exp_ref Probe; protein HSP90AB1 (P08238); analysis C6.
Assay [2] concerns the target proteins of HEK293T cells transiently overexpressing caspase-6 (Homo sapiens, UniProt P07737). To be noted: exp_ref Probe; protein PFN1 (P07737); analysis C6.
Assay [3] concerns the target T1, proteins of HEK293T cells transiently overexpressing caspase-6 (Homo sapiens, UniProt O00410).
T1 sequence (O00410 1-1097): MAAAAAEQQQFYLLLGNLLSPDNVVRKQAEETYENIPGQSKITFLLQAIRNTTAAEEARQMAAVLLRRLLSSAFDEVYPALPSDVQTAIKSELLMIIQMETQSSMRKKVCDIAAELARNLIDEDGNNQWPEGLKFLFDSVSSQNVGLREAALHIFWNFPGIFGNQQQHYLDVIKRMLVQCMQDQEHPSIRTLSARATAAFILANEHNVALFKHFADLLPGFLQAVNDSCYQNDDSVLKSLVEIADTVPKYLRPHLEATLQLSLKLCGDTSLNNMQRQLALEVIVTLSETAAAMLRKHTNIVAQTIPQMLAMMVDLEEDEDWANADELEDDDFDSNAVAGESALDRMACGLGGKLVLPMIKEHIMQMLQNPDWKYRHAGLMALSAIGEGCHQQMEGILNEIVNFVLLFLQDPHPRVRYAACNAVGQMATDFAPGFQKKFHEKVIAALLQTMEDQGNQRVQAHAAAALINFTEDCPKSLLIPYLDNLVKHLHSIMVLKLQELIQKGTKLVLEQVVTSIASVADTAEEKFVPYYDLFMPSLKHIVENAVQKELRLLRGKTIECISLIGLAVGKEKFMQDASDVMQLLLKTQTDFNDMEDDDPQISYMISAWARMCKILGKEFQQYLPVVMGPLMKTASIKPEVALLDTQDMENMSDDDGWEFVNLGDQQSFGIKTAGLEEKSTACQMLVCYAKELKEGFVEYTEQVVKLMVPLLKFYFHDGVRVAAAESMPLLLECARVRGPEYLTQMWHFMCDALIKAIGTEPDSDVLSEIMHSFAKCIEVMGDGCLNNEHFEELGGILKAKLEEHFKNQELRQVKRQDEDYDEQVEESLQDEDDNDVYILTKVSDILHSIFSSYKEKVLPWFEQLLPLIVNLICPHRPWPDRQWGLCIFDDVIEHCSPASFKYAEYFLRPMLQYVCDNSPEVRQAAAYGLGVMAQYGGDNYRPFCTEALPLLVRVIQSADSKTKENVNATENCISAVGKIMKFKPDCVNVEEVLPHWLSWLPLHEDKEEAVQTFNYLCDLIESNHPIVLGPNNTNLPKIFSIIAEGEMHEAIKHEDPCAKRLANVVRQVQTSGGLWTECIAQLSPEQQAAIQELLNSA
The conditions noted are these: protein IPO5 (O00410).

Assay [4] deals with proteins of HEK293T cells transiently overexpressing caspase-6 (Homo sapiens, UniProt P14174). To be noted: Probe; protein MIF P14174.
For assay [5], the target named is proteins of HEK293T cells transiently overexpressing caspase-6 (Homo sapiens, UniProt P02768). The conditions noted are these: Probe; protein ALB P02768.
Assay [6] has as its target T2, proteins of HEK293T cells transiently overexpressing caspase-6 (Homo sapiens, UniProt Q13162).
T2 sequence (Q13162 38-271): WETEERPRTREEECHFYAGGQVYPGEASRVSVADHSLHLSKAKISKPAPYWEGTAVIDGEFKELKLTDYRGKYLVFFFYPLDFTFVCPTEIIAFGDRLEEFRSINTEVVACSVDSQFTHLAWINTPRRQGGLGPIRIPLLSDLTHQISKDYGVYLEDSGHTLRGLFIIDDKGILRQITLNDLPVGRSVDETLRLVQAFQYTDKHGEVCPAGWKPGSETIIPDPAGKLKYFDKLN

The target in assay [7] is proteins of HEK293T cells transiently overexpressing caspase-6 (Homo sapiens, UniProt P62263). The conditions noted are these: exp_ref Probe; protein RPS14 (P62263); analysis C6.
The target in assay [8] is proteins of HEK293T cells transiently overexpressing caspase-6 (Homo sapiens, UniProt O14979). The conditions noted are these: exp_ref Probe; protein HNRNPDL (O14979); analysis C6.
In assay [9] the target is T3, proteins of HEK293T cells transiently overexpressing caspase-6 (Homo sapiens, UniProt P30084).
T3 sequence (P30084 28-290): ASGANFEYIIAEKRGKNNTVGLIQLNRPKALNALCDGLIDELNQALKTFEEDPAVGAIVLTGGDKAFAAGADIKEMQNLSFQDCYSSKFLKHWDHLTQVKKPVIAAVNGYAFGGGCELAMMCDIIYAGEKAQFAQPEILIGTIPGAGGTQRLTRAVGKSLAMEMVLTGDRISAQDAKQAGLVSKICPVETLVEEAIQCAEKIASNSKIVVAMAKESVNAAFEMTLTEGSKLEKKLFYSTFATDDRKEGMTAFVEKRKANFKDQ
The conditions noted are these: exp_ref Probe; protein ECHS1 (P30084); analysis C6.

Assay [10] has as its target proteins of HEK293T cells transiently overexpressing caspase-6 (Homo sapiens, UniProt P02786). The conditions noted are these: protein TFRC (P02786).
In assay [11] the target is proteins of HEK293T cells transiently overexpressing caspase-6 (Homo sapiens, UniProt P23528). The conditions noted are these: protein CFL1 (P23528).
Chain of proteins of HEK293T cells transiently overexpressing caspase-6 (Homo sapiens, UniProt P23528) (P23528 whole entry): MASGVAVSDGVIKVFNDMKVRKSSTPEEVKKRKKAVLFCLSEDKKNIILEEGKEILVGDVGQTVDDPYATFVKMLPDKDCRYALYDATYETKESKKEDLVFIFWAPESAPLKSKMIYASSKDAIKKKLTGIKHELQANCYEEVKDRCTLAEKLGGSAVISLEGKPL

Chain of proteins of HEK293T cells transiently overexpressing caspase-6 (Homo sapiens, UniProt P02786) (P02786 whole entry): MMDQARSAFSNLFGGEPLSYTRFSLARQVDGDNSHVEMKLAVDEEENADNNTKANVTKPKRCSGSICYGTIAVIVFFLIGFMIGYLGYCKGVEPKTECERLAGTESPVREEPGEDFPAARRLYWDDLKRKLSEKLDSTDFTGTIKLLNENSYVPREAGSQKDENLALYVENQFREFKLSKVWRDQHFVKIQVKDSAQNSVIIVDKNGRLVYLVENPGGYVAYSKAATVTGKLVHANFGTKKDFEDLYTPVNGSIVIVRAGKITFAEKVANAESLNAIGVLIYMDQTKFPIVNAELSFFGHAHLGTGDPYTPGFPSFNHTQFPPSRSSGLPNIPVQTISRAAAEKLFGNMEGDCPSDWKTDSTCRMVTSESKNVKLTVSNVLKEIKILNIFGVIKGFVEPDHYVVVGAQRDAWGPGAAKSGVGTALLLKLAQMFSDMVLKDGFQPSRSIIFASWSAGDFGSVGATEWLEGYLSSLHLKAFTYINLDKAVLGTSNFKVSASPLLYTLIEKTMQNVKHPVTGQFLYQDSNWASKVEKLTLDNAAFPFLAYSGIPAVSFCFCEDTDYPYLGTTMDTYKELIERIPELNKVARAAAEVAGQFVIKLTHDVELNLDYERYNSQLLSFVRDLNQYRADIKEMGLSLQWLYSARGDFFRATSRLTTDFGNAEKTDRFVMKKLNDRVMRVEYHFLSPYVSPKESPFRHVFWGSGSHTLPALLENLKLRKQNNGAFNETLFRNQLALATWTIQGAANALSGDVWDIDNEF
Chain of proteins of HEK293T cells transiently overexpressing caspase-6 (Homo sapiens, UniProt P07737) (P07737 whole entry): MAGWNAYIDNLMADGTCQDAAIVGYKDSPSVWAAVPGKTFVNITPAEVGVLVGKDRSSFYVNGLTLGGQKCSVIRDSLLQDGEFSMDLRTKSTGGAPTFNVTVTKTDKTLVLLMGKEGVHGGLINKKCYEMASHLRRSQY
Chain of proteins of HEK293T cells transiently overexpressing caspase-6 (Homo sapiens, UniProt P02768) (P02768 25-609): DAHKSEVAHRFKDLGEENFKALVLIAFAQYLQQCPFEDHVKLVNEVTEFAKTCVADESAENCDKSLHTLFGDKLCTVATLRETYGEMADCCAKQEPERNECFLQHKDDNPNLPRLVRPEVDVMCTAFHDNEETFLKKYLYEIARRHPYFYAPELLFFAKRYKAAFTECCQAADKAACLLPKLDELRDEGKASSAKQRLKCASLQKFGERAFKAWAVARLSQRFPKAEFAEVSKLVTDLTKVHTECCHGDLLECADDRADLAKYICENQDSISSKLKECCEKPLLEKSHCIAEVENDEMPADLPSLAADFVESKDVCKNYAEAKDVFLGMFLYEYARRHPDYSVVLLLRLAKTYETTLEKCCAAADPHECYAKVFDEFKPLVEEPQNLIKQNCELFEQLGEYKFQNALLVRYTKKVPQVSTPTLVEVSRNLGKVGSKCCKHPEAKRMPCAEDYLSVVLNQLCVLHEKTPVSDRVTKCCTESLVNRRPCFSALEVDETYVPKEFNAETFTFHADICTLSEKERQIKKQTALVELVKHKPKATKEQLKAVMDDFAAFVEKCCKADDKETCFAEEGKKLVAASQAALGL
Chain of proteins of HEK293T cells transiently overexpressing caspase-6 (Homo sapiens, UniProt P14174) (P14174 whole entry): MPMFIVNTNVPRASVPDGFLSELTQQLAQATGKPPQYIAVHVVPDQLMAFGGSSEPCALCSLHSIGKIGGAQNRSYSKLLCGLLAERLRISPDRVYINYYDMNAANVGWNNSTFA
Chain of proteins of HEK293T cells transiently overexpressing caspase-6 (Homo sapiens, UniProt O14979) (O14979 whole entry): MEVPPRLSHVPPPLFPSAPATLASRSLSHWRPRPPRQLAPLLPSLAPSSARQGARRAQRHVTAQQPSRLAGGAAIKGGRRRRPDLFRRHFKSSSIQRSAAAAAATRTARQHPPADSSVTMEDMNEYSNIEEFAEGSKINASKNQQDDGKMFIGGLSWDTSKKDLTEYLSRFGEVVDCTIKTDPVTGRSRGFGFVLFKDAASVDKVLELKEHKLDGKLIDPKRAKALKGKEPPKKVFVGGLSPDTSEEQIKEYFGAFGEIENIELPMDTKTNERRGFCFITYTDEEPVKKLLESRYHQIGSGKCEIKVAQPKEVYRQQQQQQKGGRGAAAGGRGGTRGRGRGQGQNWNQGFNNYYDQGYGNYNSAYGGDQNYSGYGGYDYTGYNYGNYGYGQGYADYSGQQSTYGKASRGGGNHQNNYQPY
Chain of proteins of HEK293T cells transiently overexpressing caspase-6 (Homo sapiens, UniProt P08238) (P08238 whole entry): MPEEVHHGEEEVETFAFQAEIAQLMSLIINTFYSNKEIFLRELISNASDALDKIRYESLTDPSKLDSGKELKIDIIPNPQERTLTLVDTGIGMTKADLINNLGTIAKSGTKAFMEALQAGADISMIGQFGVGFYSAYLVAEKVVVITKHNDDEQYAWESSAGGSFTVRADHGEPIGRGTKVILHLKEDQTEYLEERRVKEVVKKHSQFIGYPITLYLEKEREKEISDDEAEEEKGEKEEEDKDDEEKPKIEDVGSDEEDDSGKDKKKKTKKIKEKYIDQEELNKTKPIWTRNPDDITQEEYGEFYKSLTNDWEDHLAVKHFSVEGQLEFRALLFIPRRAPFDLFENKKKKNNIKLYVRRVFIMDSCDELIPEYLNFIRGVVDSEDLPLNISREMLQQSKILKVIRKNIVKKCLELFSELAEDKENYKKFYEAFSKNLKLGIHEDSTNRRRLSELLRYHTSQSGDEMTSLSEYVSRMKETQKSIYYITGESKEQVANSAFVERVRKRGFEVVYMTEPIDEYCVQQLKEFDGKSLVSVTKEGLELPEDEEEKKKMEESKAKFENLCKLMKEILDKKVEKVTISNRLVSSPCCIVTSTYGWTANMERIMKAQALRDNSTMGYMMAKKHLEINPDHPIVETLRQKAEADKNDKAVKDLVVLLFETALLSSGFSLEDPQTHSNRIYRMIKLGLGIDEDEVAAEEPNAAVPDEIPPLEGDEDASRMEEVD

As for `C#CCOc1ccc([C@@H]2C[C@@H](C(=O)Nc3ccc(OC(F)(F)F)cc3)CN(S(=O)(=O)C=C)C2)cc1` (relative stereo) [13-t], the enrich.exp.med in assay [1] is listed as 0.3736; in assay [2], -0.1003; in [3] (exp_ref Probe, analysis C6) it was 0.788; in assay [4], -1.906; in [5] it was -8.362; in assay [6] (Probe, protein PRDX4 Q13162), -1.846. For the same compound, the enrich.exp.med is reported as -0.03314 in assay [7]; -0.3286 in assay [8]; 0.4283 in assay [9]; 0.8901 in [10] (exp_ref Probe, analysis C6); 0.4078 in [11] (exp_ref Probe, analysis C6). The enrich.exp.med.lin in [3] is on record as 1.727; in assay [6] (protein PRDX4 (Q13162)) it was 0.2781; in [10], 1.853; in assay [11], 1.327. Moreover, the enrich.exp.med.log2 in [3] was 0.788; in assay [6] (protein PRDX4 (Q13162)), -1.846; in assay [10] it was 0.8901; in [11], 0.4078.
